Measured values taken from US20260262643A1, “HERBICIDAL BENZOXAZINES” (FMC CORPORATION, priority 2022, published 2026).

Tests used:
barnyardgrass [1] = assay: Test D flooded paddy test; format: in vivo, Echinochloa crus-galli; conditions: 250 g ai/ha, applied to paddy water, visual rating after 13 to 14 days, scale 0 to 100 (0 no effect, 100 complete control)
How it was run: (§1)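 Compounds go straight into paddy water over 2-leaf plants in pots flooded to 3 cm. Greenhouse holding lasts 13 to 14 days. Injury is scored by eye against controls from 0 (none) to 100 (complete control).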

barnyardgrass [2] = assay: Test C postemergence; format: in vivo, Echinochloa crusgalli; conditions: 10 days
How it was run: (§2)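 Seeds sown in loam soil–sand blend received a directed preemergence soil spray of test chemical in non-phytotoxic solvent with surfactant; postemergence plants (2–10 cm, one- to two-leaf stage) were sprayed with the same formulation. Greenhouse-held 10 days, then visually rated for injury versus untreated controls, 0 (no effect) to 100 (complete control).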

pigweed, palmer [3] = assay: Test C preemergence; format: in vivo, Amaranthus palmeri; conditions: preemergence, 0 to 100 scale (0 no effect, 100 complete control)
How it was run: as §2

kochia [4] = assay: Test C preemergence; format: in vivo, Bassia scoparia; conditions: preemergence, 0 to 100 scale (0 no effect, 100 complete control)
How it was run: as §2

ryegrass, Italian [5] = assay: Test C postemergence; format: in vivo, Lolium multiflorum; conditions: 10 days
How it was run: as §2

oat, wild [6] = assay: Test C postemergence; format: in vivo, Avena fatua; conditions: 10 days
How it was run: as §2

corn [7] = assay: Test C postemergence; format: in vivo, Zea mays; conditions: 10 days
How it was run: as §2

green foxtail [8] = assay: Test C postemergence; format: in vivo, Setaria viridis; conditions: 10 days
How it was run: as §2

kochia [9] = assay: Test C postemergence; format: in vivo, Bassia scoparia; conditions: 10 days
How it was run: as §2

corn [10] = assay: Test C preemergence; format: in vivo, Zea mays; conditions: preemergence, 0 to 100 scale (0 no effect, 100 complete control)
How it was run: as §2

oat, wild [11] = assay: Test C preemergence; format: in vivo, Avena fatua; conditions: preemergence, 0 to 100 scale (0 no effect, 100 complete control)
How it was run: as §2

soybean [12] = assay: Test C preemergence; format: in vivo, Glycine max; conditions: preemergence, 0 to 100 scale (0 no effect, 100 complete control)
How it was run: as §2

ragweed [13] = assay: Test C preemergence; format: in vivo, Ambrosia artemisiifolia; conditions: preemergence, 0 to 100 scale (0 no effect, 100 complete control)
How it was run: as §2

wheat [14] = assay: Test C preemergence; format: in vivo, Triticum aestivum; conditions: preemergence, 0 to 100 scale (0 no effect, 100 complete control)
How it was run: as §2

ryegrass, Italian [15] = assay: Test C preemergence; format: in vivo, Lolium multiflorum; conditions: preemergence, 0 to 100 scale (0 no effect, 100 complete control)
How it was run: as §2

green foxtail [16] = assay: Test C preemergence; format: in vivo, Setaria viridis; conditions: preemergence, 0 to 100 scale (0 no effect, 100 complete control)
How it was run: as §2

ragweed [17] = assay: Test C postemergence; format: in vivo, Ambrosia artemisiifolia; conditions: 10 days
How it was run: as §2

pigweed, palmer [18] = assay: Test C postemergence; format: in vivo, Amaranthus palmeri; conditions: 10 days
How it was run: as §2

soybean [19] = assay: Test C postemergence; format: in vivo, Glycine max; conditions: 10 days
How it was run: as §2

horseweed = assay: Test C postemergence; format: in vivo, Erigeron canadensis; conditions: 10 days
How it was run: as §2

ducksalad = assay: Test D flooded paddy test; format: in vivo, Heteranthera limosa; conditions: 250 g ai/ha, applied to paddy water, visual rating after 13 to 14 days, scale 0 to 100 (0 no effect, 100 complete control)
How it was run: as §1

sedge, umbrella = assay: Test D flooded paddy test; format: in vivo, Cyperus difformis; conditions: 250 g ai/ha, applied to paddy water, visual rating after 13 to 14 days, scale 0 to 100 (0 no effect, 100 complete control)
How it was run: as §1

blackgrass [20] = assay: Test C preemergence; format: in vivo, Alopecurus myosuroides; conditions: 0 to 100 scale (0 no effect, 100 complete control); for Blackgrass plant response rating: preemergence
How it was run: as §2

galium = assay: Test C postemergence; format: in vivo, Galium aparine; conditions: 10 days
How it was run: as §2

blackgrass [21] = assay: Test C postemergence; format: in vivo, Alopecurus myosuroides; conditions: 10 days
How it was run: as §2

wheat [22] = assay: Test C postemergence; format: in vivo, Triticum aestivum; conditions: 10 days
How it was run: as §2

barnyardgrass [23] = assay: Test C preemergence; format: in vivo, Echinochloa crusgalli; conditions: 0 to 100 scale (0 no effect, 100 complete control); for Barnyardgrass plant response rating: preemergence
How it was run: as §2

rice = assay: Test D flooded paddy test; format: in vivo, Oryza sativa; conditions: 250 g ai/ha, applied to paddy water, visual rating after 13 to 14 days, scale 0 to 100 (0 no effect, 100 complete control)
How it was run: as §1

[24] = 125 g ai/ha, postemergence, 0 to 100 scale, 0 no effect, 100 complete control
[25] = Postemergence, 500 g ai/ha, visual 0 to 100 scale (0 no effect, 100 complete control)
[26] = Preemergence, 500 g ai/ha, visual rating after 10 days
[27] = 500 g ai/ha, postemergence, 0 to 100 scale (0 no effect, 100 complete control)
[28] = Postemergence, 125 g ai/ha, 0 to 100 scale (0 no effect, 100 complete control)

SMILES: CCc1ccc(-n2cnc(C(C)(C)O)n2)cc1C(=O)N1C[C@H](C)Oc2c(C)cccc21 [Compound 279]
- Plant response rating, Barnyardgrass (Flood) (barnyardgrass [1]): 60
- Plant response rating, Barnyardgrass (barnyardgrass [2]; [24]): 90
- Plant response rating, Barnyardgrass (barnyardgrass [2]; [25]): 100
- Pigweed, Palmer plant response rating (pigweed, palmer [3]; 500 g ai/ha): 100
- Pigweed, Palmer plant response rating (pigweed, palmer [3]; Test C, 125 g ai/ha): 100
- Kochia plant response rating (kochia [4]; 500 g ai/ha): 90
- Kochia plant response rating (kochia [4]; Test C, 125 g ai/ha): 70
- Plant response rating, Ryegrass, Italian (ryegrass, Italian [5]; [24]): 90
- Plant response rating, Oat, Wild (oat, wild [6]; [24]): 80
- Plant response rating, Corn (corn [7]; [24]): 90
- Plant response rating, Corn (corn [7]; [25]): 90
- Plant response rating, Foxtail, Green (green foxtail [8]; [24]): 90
- Plant response rating, Foxtail, Green (green foxtail [8]; [25]): 90
- Plant response rating, Kochia (kochia [9]; [24]): 20
- Corn plant response rating (corn [10]; 500 g ai/ha): 80
- Corn plant response rating (corn [10]; Test C, 125 g ai/ha): 50
- Oat, Wild plant response rating (oat, wild [11]; 500 g ai/ha): 90
- Oat, Wild plant response rating (oat, wild [11]; Test C, 125 g ai/ha): 80
- Soybean plant response rating (soybean [12]; 500 g ai/ha): 100
- Soybean plant response rating (soybean [12]; Test C, 125 g ai/ha): 90
- Ragweed plant response rating (ragweed [13]; 500 g ai/ha): 90
- Ragweed plant response rating (ragweed [13]; Test C, 125 g ai/ha): 70
- Wheat plant response rating (wheat [14]; 500 g ai/ha): 90
- Wheat plant response rating (wheat [14]; Test C, 125 g ai/ha): 60
- Ryegrass, Italian plant response rating (ryegrass, Italian [15]; 500 g ai/ha): 90
- Ryegrass, Italian plant response rating (ryegrass, Italian [15]; Test C, 125 g ai/ha): 90
- Foxtail, Green plant response rating (green foxtail [16]; 500 g ai/ha): 100
- Foxtail, Green plant response rating (green foxtail [16]; Test C, 125 g ai/ha): 100
- Plant response rating, Ragweed (ragweed [17]; [24]): 50
- Plant response rating, Pigweed, Palmer (pigweed, palmer [18]; [24]): 70
- Plant response rating, Soybean (soybean [19]; [24]): 100
- Plant response rating, Horseweed (horseweed; [24]): 0
- Plant response rating, Horseweed (horseweed; [25]): 20
- Plant response rating, Ducksalad (Flood) (ducksalad): 100
- Plant response rating, Sedge, Umbrella (Flood) (sedge, umbrella): 100
- Plant response rating, Blackgrass (blackgrass [20]; [26]): 90
- Blackgrass plant response rating (blackgrass [20]; Test C, 125 g ai/ha): 70
- Plant response rating, Galium (galium; [24]): 100
- Plant response rating, Galium (galium; [25]): 100
- Plant response rating, Blackgrass (blackgrass [21]; [24]): 80
- Plant response rating, Blackgrass (blackgrass [21]; [25]): 90
- Plant response rating, Wheat (wheat [22]; [24]): 80
- Plant response rating, Barnyardgrass (barnyardgrass [23]; [26]): 100
- Barnyardgrass plant response rating (barnyardgrass [23]; Test C, 125 g ai/ha): 90
- Plant response rating, Rice (Flood) (rice): 35

SMILES: CCOc1ncn(-c2cccc(C(=O)N3C[C@H](C)Oc4c(Cl)cccc43)c2)n1 [Compound 311]
- Plant response rating, Barnyardgrass (Flood) (barnyardgrass [1]): 0
- Plant response rating, Barnyardgrass (barnyardgrass [2]; [27]): 40
- Plant response rating, Barnyardgrass (barnyardgrass [2]; [28]): 10
- Pigweed, Palmer plant response rating (pigweed, palmer [3]; 500 g ai/ha): 100
- Pigweed, Palmer plant response rating (pigweed, palmer [3]; Test C, 125 g ai/ha): 50
- Kochia plant response rating (kochia [4]; 500 g ai/ha): 80
- Kochia plant response rating (kochia [4]; Test C, 125 g ai/ha): 20
- Plant response rating, Ryegrass, Italian (ryegrass, Italian [5]; [27]): 30
- Plant response rating, Ryegrass, Italian (ryegrass, Italian [5]; [28]): 10
- Plant response rating, Oat, Wild (oat, wild [6]; [27]): 10
- Plant response rating, Oat, Wild (oat, wild [6]; [28]): 0
- Plant response rating, Corn (corn [7]; [27]): 40
- Plant response rating, Corn (corn [7]; [28]): 10
- Plant response rating, Foxtail, Green (green foxtail [8]; [27]): 40
- Plant response rating, Foxtail, Green (green foxtail [8]; [28]): 30
- Plant response rating, Kochia (kochia [9]; [27]): 70
- Plant response rating, Kochia (kochia [9]; [28]): 30
- Corn plant response rating (corn [10]; 500 g ai/ha): 0
- Corn plant response rating (corn [10]; Test C, 125 g ai/ha): 0
- Oat, Wild plant response rating (oat, wild [11]; 500 g ai/ha): 30
- Oat, Wild plant response rating (oat, wild [11]; Test C, 125 g ai/ha): 0
- Soybean plant response rating (soybean [12]; 500 g ai/ha): 10
- Soybean plant response rating (soybean [12]; Test C, 125 g ai/ha): 0
- Wheat plant response rating (wheat [14]; 500 g ai/ha): 20
- Wheat plant response rating (wheat [14]; Test C, 125 g ai/ha): 0
- Ryegrass, Italian plant response rating (ryegrass, Italian [15]; 500 g ai/ha): 80
- Ryegrass, Italian plant response rating (ryegrass, Italian [15]; Test C, 125 g ai/ha): 30
- Foxtail, Green plant response rating (green foxtail [16]; 500 g ai/ha): 100
- Foxtail, Green plant response rating (green foxtail [16]; Test C, 125 g ai/ha): 90
- Plant response rating, Ragweed (ragweed [17]; [27]): 40
- Plant response rating, Ragweed (ragweed [17]; [28]): 0
- Plant response rating, Pigweed, Palmer (pigweed, palmer [18]; [27]): 60
- Plant response rating, Pigweed, Palmer (pigweed, palmer [18]; [28]): 20
- Plant response rating, Soybean (soybean [19]; [27]): 100
- Plant response rating, Soybean (soybean [19]; [28]): 70
- Plant response rating, Horseweed (horseweed; [27]): 50
- Plant response rating, Horseweed (horseweed; [28]): 50
- Plant response rating, Ducksalad (Flood) (ducksalad): 0
- Plant response rating, Sedge, Umbrella (Flood) (sedge, umbrella): 0
- Blackgrass plant response rating (blackgrass [20]; 500 g ai/ha): 80
- Blackgrass plant response rating (blackgrass [20]; Test C, 125 g ai/ha): 10
- Plant response rating, Galium (galium; [27]): 90
- Plant response rating, Galium (galium; [28]): 90
- Plant response rating, Blackgrass (blackgrass [21]; [27]): 90
- Plant response rating, Blackgrass (blackgrass [21]; [28]): 0
- Plant response rating, Wheat (wheat [22]; [27]): 10
- Plant response rating, Wheat (wheat [22]; [28]): 10
- Barnyardgrass plant response rating (barnyardgrass [23]; 500 g ai/ha): 60
- Barnyardgrass plant response rating (barnyardgrass [23]; Test C, 125 g ai/ha): 0
- Plant response rating, Rice (Flood) (rice): 0
